Assay results from ChEMBL document CHEMBL1201862, “PubChem BioAssay data set” (2004).
The source made the active and inactive calls.

Legend:
[1] = YAP1 overexpression rescue of CTGF inhibition – DLD1 cells, RT-qPCR, cherry-pick, mechanism study for YAP1 pathway inhibitor project, dose response (AID 1053127); type: functional, cell-based; settings: DLD-1
[2] = CTGF mRNA reduction in DLD1 cells – cell-based, DLD1 colon cancer, RT-qPCR, cherry-pick, dose response (AID 1053122); type: functional; settings: Cancer cell lines
[3] = liver cell line viability loss – HepG2, luminescence plate reader, powder samples, set 2, cytotoxicity control, dose response (AID 651860); type: functional, cell-based
[4] = viability loss in HepG2 hepatoma cells – cell-based, cherry-picks, set 5, cytotoxicity control, dose response (AID 1053118); type: functional
[5] = viability loss in HEK293 kidney cells – cell-based, cherry-picks, set 5, cytotoxicity control, dose response (AID 1053117); type: functional
[6] = viability loss in A549 lung cancer cells – cell-based, cherry-picks, […], cytotoxicity control, dose response (AID 1053119); type: functional
[7] = blockers of FN fibrillogenesis by fibroblasts – AH1F cells, Alexa488-FN fluorescence, cherry-picks, dose response (AID 1035475); type: functional, cell-based
[8] = luciferase reporter signal suppression in cells – H4 neuroglioma cells, luminescence, dose response (AID 1990); type: functional, cell-based
BJ [9] = assay: BJ-TERT fibroblast viability loss – cell-based, RAS-independent, luminescence, dose response (AID 1933); type: functional; settings: Homo sapiens
[10] = Luminescence Cell-Based Dose Response HTS to Identify Inhibitors of 5'UTR Stem-Loop Driven Prion Protein mRNA Translation in H4 Neuroglioblastoma Cells. [Related pubchem assays: 1827 (Project Summary), 1813 (Primary HTS)]; type: functional
[11] = alpha-synuclein stem-loop luciferase translation blockers – H4 neuroglioma cells, luminescence, confirmation (AID 1988); type: functional, cell-based
BJ [12] = assay: cells; type: functional, cell-based; settings: Homo sapiens
BJ [13] = assay: BJ-TERT-LT-ST fibroblast viability loss – cell-based, RAS-independent, luminescence, dose response (AID 1935); type: functional; settings: Homo sapiens;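 further: BJ fibroblasts immortalized with TERT plus LT and ST oncogenes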
[14] = DRD fibroblast viability loss – cell-based, non-viral oncogenic, luminescence, dose response (AID 1934); type: functional; settings: Homo sapiens
[15] = HEK-293T viability loss after treatment – luminescence, T-cell screen hits, cytotoxicity control for TCR NF-kB inhibitor project, dose response (AID 489026); type: functional, cell-based;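 further: cells exposed to compound about 14 hours before the viability readout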
BJ [16] = assay: growth inhibition of engineered Ras-driven BJ cells – cell-based, alamar blue fluorescence, cherrypicked samples, dose response (AID 2631); type: functional; settings: Homo sapiens;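 further: confirmatory dose-response assay in RAS-dependent BJ fibroblasts engineered with TERT, LT and ST, with cytotoxicity read by fluorescence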
[17] = toxicity toward HEK293 cells – cell-based, dry powder samples, cytotoxicity control, dose response (AID 720567); type: functional
[18] = toxicity toward HepG2 hepatoma cells – cell-based, dry powder samples, cytotoxicity control, dose response (AID 720568); type: functional
[19] = molecular target: DNA (cytosine-5)-methyltransferase 1 (Homo sapiens, UniProt P26358); assay: inhibition of DNA methylation by DNMT1 – biochemical, fluorescent molecular beacon, confirmation (AID 602386); type: functional
Chain of DNA (cytosine-5)-methyltransferase 1 (P26358 whole entry): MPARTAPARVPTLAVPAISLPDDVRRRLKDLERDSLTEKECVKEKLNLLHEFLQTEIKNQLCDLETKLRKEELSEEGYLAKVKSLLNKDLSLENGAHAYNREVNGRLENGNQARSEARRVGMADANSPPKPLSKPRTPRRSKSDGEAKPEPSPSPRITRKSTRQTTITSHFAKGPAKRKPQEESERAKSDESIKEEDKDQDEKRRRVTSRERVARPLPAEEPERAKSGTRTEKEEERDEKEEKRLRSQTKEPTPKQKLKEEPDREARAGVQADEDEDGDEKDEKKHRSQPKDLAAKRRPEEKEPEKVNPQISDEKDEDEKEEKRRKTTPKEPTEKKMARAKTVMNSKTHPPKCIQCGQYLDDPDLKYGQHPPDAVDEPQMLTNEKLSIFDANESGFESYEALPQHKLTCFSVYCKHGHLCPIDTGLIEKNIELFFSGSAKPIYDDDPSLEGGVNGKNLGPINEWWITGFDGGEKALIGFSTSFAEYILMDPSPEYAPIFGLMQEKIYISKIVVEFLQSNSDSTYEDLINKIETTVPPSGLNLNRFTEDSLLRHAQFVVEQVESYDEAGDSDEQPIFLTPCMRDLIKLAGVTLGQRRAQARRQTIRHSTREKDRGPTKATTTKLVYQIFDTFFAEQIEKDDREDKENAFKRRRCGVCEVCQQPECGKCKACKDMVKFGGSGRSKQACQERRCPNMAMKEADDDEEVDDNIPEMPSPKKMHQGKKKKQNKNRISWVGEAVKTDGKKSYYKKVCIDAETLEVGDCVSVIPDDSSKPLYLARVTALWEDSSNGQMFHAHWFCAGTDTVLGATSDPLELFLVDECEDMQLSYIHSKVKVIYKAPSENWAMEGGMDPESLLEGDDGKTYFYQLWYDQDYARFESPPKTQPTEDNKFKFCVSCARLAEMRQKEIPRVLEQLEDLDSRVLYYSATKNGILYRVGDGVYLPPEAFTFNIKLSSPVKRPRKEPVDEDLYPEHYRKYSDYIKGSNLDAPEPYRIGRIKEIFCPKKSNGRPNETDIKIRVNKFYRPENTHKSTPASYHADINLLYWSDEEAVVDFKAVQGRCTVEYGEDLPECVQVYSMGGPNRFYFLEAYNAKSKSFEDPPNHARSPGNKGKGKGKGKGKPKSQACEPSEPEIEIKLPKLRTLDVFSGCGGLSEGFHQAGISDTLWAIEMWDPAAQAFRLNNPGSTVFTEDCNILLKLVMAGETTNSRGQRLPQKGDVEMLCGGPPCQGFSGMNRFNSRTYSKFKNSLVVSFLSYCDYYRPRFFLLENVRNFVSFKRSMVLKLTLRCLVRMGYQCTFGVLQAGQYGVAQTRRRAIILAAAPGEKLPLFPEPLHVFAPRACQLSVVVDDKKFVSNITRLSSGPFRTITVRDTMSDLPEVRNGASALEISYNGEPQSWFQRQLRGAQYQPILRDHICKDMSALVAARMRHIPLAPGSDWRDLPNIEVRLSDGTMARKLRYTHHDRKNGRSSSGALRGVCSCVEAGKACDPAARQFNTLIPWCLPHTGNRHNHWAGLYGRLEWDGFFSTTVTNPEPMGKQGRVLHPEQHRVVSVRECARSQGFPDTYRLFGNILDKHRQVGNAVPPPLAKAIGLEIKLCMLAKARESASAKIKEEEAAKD

[20] = molecular target: NAD-dependent protein deacylase sirtuin-5, mitochondrial (Homo sapiens, UniProt Q9NXA8); assay: sirtuin-5 deacylation blockers, concentration series – biochemical, fluorescence imaging, cherry-pick, set 5, dose response (AID 720591);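 further: desuccinylation of succinyl peptide AMC substrate read as fluorescence after trypsin release; potency of inhibitors that lower fluorescence and may act on trypsin instead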
Chain of NAD-dependent protein deacylase sirtuin-5, mitochondrial (Q9NXA8 whole entry): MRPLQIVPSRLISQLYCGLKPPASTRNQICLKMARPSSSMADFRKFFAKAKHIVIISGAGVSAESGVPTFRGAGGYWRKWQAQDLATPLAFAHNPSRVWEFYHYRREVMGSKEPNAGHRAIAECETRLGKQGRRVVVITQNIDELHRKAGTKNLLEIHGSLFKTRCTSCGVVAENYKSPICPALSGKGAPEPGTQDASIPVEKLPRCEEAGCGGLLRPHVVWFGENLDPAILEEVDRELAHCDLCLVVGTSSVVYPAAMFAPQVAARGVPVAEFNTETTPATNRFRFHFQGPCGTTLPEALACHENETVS

[21] = HepG2 hepatoma cell viability loss – plate reader, dry powder, cytotoxicity control, dose response (AID 651947); type: functional, cell-based
[22] = microbe, parasite or virus in culture; type: functional; settings: Mycobacterium tuberculosis
[23] = reduction of Shn3 3'UTR-driven luciferase in osteoblasts – cell-based, Clone20 osteoblasts, firefly luciferase, cherry-picked, dose response (AID 624132); type: functional;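 further: firefly luciferase luminescence from reporter carrying the Shn3 3'UTR in osteoblasts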
[24] = Shn3 3'UTR reporter signal decrease – cell-based, Clone20 osteoblasts, firefly luciferase, cherry-pick, set 2, Schnurri-3 inhibitor project, dose response (AID 720490); type: functional;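 further: actives lower the luminescence signal as inhibitors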
Kallikrein-7 = Kallikrein-7 (Homo sapiens, UniProt P49862); assay: Fluorescence Intensity-based biochemical primary high throughput dose response assay to identify activators of kallikrein-7 (K7) zymogen.
Chain of Kallikrein-7 (P49862 whole entry): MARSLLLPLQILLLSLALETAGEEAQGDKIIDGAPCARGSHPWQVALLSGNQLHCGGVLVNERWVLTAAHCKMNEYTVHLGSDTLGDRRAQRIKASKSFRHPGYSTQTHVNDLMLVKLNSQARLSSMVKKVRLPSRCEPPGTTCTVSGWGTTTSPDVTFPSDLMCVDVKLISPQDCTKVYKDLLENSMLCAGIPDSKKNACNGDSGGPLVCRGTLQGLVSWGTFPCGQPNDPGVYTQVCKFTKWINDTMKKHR

[25] = optical artefact potency, substrate without enzyme – biochemical, fluorescence intensity, triplicate, artefact control for kallikrein-7 zymogen activator project, dose response (AID 720493)
[26] = inhibitors of non-replicating M. tuberculosis, dose response, luciferase, dry powder (AID 651619); type: functional; settings: Mycobacterium tuberculosis
[27] = inhibitors of non-replicating M. tuberculosis, dose response, luciferase, dry powder (AID 651620); type: functional; settings: Mycobacterium tuberculosis
[28] = growth inhibition of replicating M. tuberculosis, dose response, counter-screen, dry powder, IC90 (AID 651617); type: functional; settings: Mycobacterium tuberculosis
[29] = viability loss in A549 lung cells – cell-based, 24 h, CellTiter-Glo luminescence, cherry-picks, cytotoxicity control, dose response (AID 1053115); type: functional; settings: A549, 24 h
[30] = THP-1 cell cytotoxicity, dose response, cytotoxicity control for non-replicating M. tuberculosis project (AID 489025); type: functional
[31] = HepG2 cell cytotoxicity, dose response, cytotoxicity control for non-replicating M. tuberculosis project (AID 489018); type: functional; settings: Mycobacterium tuberculosis
[32] = Vero E6 cell cytotoxicity, dose response, cytotoxicity control for non-replicating M. tuberculosis project, secondary assay (AID 492998); type: functional, VeroE6; settings: Vero C1008
[33] = molecular target: T1, Short transient receptor potential channel 4 (Mus musculus, UniProt Q9QUQ5); assay: calcium entry via TRPC4 opening agents – cell-based, HEK293 TRPC4/mu-opioid, Fluo-4 calcium, dose response (AID 434937); type: functional
T1 sequence (Q9QUQ5 whole entry): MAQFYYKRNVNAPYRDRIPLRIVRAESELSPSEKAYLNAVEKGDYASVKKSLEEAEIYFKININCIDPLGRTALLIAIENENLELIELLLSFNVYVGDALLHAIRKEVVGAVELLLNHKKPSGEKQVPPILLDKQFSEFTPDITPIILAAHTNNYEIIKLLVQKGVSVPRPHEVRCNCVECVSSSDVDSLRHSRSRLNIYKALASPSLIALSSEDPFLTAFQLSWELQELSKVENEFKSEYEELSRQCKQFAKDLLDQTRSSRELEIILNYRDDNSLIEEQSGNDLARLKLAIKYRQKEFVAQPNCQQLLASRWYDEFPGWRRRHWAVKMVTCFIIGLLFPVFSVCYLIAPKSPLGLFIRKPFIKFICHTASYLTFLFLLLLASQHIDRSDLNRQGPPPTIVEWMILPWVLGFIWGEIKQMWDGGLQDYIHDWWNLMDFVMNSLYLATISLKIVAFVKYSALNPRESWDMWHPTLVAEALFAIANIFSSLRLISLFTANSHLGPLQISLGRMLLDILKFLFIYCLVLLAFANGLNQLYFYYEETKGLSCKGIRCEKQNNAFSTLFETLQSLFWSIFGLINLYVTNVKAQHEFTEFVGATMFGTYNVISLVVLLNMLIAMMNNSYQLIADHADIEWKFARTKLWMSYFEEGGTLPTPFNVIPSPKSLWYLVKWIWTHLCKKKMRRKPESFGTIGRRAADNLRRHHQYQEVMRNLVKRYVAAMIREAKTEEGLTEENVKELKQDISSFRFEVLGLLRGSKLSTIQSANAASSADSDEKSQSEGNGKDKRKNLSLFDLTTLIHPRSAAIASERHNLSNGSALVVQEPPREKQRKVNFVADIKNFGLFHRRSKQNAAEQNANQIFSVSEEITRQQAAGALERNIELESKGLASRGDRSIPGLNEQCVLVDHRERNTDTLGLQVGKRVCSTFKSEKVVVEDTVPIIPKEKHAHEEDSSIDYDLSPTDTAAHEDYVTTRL

cells [34] = type: functional
Vero [35] = assay: cells; type: functional, cell-based; settings: Chlorocebus sabaeus
Vero [36] = assay: cells; type: functional; settings: Chlorocebus sabaeus
[37] = viability loss in HepG2 liver cells – cell-based, ATP luminescence, cherry-pick, set 6, cytotoxicity control, dose response (AID 1053125); type: functional
[38] = HGIII-sPLA2 enzyme inhibition potency – biochemical, QFRET, IC50, dose response (AID 743457);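 further: green fluorescence rise as the enzyme cleaves BODIPY PC-A2 in liposomes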
cells [39] = settings: A549
cells [40] = settings: HEK293;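 further: cells exposed to compound for 48 hours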
HEK293 = assay: viability loss in HEK293T cells – cell-based, ATP luminescence, cherry-pick samples, cytotoxicity control, dose response (AID 687005); type: functional; settings: Homo sapiens;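 further: cells exposed to compound for 48 hours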
[41] = HEK293 Cytotoxicity Assay Measured in Cell-Based System Using Plate Reader - 7071-01_Inhibitor_Dose_CherryPick_Activity_Set2.; type: functional
[42] = activation of miR-122 Renilla sensor silencing – cell-based, Huh7 psiCHECK-miR122, Renilla luciferase, cherry-picked, dose response (AID 651956); type: functional;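 further: huh7 hepatoma cells stably carrying a psiCHECK-2 miR-122 sensor plasmid; renilla luciferase signal reporting endogenous miR-122 activity after 48 h compound exposure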
[43] = reduced cellular PGC1a acetyl-lysine signal – cell-based, cherry-picked samples, dose response (AID 720514); type: functional;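 further: potency may reflect raised or lowered acetylation signal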
[44] = general mammalian cell viability loss – activator set, cherry-pick, cytotoxicity control for miR-122 modulator project, dose response (AID 720690); type: functional, cell-based;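 further: HEK293T human cells scored for general mammalian cytotoxicity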
[45] = P. falciparum Dd2 growth inhibitors, dose response, SYBR Green, cherry-picked samples (AID 1159567); type: functional, cell-based
[46] = toxicity to human hepatoma HepG2 cells – cell-based, cherry-picked samples, cytotoxicity control, dose response (AID 1159577); type: functional

C[C@@H]1C/C=C/C[C@H](c2ccc(F)cc2)NC(=O)[C@@H](Cc2ccccc2)N(C)C(=O)c2ccccc2O1.C[C@@H]1C/C=C\C[C@H](c2ccc(F)cc2)NC(=O)[C@@H](Cc2ccccc2)N(C)C(=O)c2ccccc2O1
AC50 [1]: 20.9 µM (active) | AC50 [2]: 4.01 µM (active)

O=C(O)[C@H]1CCCC[C@H]1C(=O)N1CCc2ccccc2C1CCN1C(=O)c2ccccc2C1=O (stereo partly drawn)
AC50 [3]: > 52 µM (inactive)

COc1ccc(S(=O)(=O)N2CCCCC2c2cc(C(=O)Nc3ccc4c(c3)OCO4)no2)cc1 (stereo not drawn)
AC50 [4]: 15.4 µM (active) | AC50 [5]: 11.4 µM (active) | AC50 [6]: 23.9 µM (active) | AC50 [7]: 32.6 µM (active)

CC(=O)c1ccc(Oc2cc(C)nc(-n3nc(C)cc3C)n2)cc1
EC50 [8]: 4.5 µM (active) | EC50 (BJ [9]): 1.95 µM (active) | EC50 [10]: 0.339 µM (active) | EC50 [11]: 0.44 µM (active) | EC50 (BJ [12]): 63.8 µM (inconclusive) | EC50 (BJ [13]): 1.45 µM (active) | EC50 [14]: 0.917 µM (active) | IC50 [15]: > 80 µM (inactive) | EC50 (BJ [16]): 0.264 µM (active) | AC50 [17]: 15.8 µM (active) | AC50 [18]: > 30 µM (inactive)

Cc1ccc(S(=O)(=O)N2[C@@H](c3ccc(C(C)(C)C)cc3)C(C(=O)O)=CC[C@H]2c2ccc(C(C)C)cc2)cc1
IC50 [19]: 5.04 µM (active) | AC50 [20]: 17.5 µM (active)

c1ccc(CSc2nnc(-c3cscn3)o2)cc1
AC50 [21]: 34.4 µM (active)

O=C(c1nnc(O)c2ccccc12)N1CCN(C2c3ccccc3-c3ccccc32)CC1
CC50 [22]: > 40 µM (active) | AC50 [23]: 7.69 µM (active) | AC50 [24]: 10.7 µM (active)

O=C1c2ccccc2NC(c2cccnc2)N1c1ccccc1F (stereo not drawn)
EC50 (Kallikrein-7): > 69.5 µM (inactive) | EC50 [25]: > 7.72 µM (active)

c1ccc(Cn2cc(CSc3nnc(C4CCC4)o3)nn2)cc1
IC90 [26]: 4 µM (active) | IC90 [27]: 4 µM (active) | IC90 [28]: 250 µM (active)

CN1c2ccc(-c3ccc(C#N)cc3)cc2[C@H]2[C@H](CCN2C(=O)C2CCCCC2)[C@@H]1CO
AC50 [29]: 36.2 µM (active)

CCCOc1ccc(C(=O)NNC(=S)NC(=O)c2ccco2)cc1
CC50 [30]: 7.6 µM (active) | CC50 [31]: 17.4 µM (active) | CC50 [32]: 8.73 µM (active) | EC50 [33]: 5.96 µM (active) | IC50 (cells [34]): 2.55 µM (active) | IC50 (Vero [35]): > 25 µM (active) | CC50 (Vero [36]): 20.7 µM (active) | AC50 [37]: > 52 µM (inactive) | IC50 [38]: 44 µM (inactive) | AC50 (cells [39]): 36.8 µM (active) | AC50 (cells [40]): 42.2 µM (active)

COc1ccc(S(=O)(=O)N[C@@H]2C=C[C@@H](CC(=O)N3CCC(Cc4ccccc4)CC3)O[C@H]2CO)cc1
AC50 (HEK293): 19.9 µM (active) | AC50 [41]: 19.9 µM (active)

O=C(Nc1ccccc1F)N1CCCCN2[C@@H](CO)[C@@H](c3ccc(C#Cc4ccccc4)cc3)[C@@H]2C1
AC50 [42]: 8.65 µM (active) | AC50 [43]: 15.9 µM (active) | AC50 [44]: 7.45 µM (active) | AC50 [45]: 2.13 µM (active) | AC50 [46]: 9.78 µM (active)
